The target of data set [1] is T1, NLRP3 (Mus musculus, UniProt Q8R4B8). Put plainly: Inhibition of canonical NLRP3 activation (LPS+ATP/Nig) in J774A.1 cells, IL-1β release by ELISA, single concentration. The format is cell-based. The arrangement: The mouse macrophage cell line J774A.1 was used, and LPS was used as the first signal; host or cells: J774A.1 mouse monocyte-macrophage cell line. As for the experimental part: J774A.1 cells were plated in a 48-well plate at a density of 1.0×10^6 cells/mL, with 300 µL per well. Subsequently, NLRP3 was activated using LPS+5 mM ATP (adenosine triphosphate) or 10 µM Nig (nigericin). […] ATP was purchased from Sigma, Cat. No.: L2654. Nig was purchased from Shanghai Yuanye Bio-Technology Co., Ltd., Cat. No.: S45490.
T1 sequence (Q8R4B8 whole entry): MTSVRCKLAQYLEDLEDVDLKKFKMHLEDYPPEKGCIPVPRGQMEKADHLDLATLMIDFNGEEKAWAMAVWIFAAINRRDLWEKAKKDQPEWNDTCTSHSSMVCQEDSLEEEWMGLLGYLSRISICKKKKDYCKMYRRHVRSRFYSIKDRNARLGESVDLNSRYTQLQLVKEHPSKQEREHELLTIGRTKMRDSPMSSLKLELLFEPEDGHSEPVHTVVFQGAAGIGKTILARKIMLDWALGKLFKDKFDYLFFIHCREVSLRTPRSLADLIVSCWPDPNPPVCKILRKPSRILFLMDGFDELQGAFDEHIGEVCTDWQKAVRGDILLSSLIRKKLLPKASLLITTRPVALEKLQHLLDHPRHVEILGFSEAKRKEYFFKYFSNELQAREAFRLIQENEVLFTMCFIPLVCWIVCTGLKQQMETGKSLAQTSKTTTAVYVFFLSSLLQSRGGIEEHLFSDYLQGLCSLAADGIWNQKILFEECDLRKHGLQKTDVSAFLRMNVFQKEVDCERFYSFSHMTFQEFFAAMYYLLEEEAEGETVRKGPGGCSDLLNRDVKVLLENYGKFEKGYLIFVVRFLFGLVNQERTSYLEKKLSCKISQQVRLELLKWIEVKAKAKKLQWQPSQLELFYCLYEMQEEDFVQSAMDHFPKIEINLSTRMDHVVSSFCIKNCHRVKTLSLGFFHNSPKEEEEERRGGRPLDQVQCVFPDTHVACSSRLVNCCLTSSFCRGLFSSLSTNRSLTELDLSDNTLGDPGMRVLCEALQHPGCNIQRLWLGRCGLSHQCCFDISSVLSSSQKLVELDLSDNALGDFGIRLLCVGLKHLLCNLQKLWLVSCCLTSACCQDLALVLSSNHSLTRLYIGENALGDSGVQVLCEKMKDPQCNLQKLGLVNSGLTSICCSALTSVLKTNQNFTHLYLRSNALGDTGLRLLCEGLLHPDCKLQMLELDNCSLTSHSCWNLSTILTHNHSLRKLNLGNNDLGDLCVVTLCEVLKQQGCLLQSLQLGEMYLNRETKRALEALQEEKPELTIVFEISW
Experimental groups: a negative control group, an LPS-alone incubation control group, an LPS+ATP or +Nig positive control group, and an example compound experimental group.
After the plated J774A.1 cells adhering to the plate, the culture medium was replaced. For all the groups except the negative control group, the culture medium was completely replaced with cell culture medium containing 1 µg/mL LPS. The negative control group received cell culture medium. Then, all the groups were incubated overnight. 18 h later, the culture medium was replaced again. The culture medium of the example compound experimental group was completely replaced with cell culture medium containing the compounds; while the negative control group, the LPS-alone incubation control group, and the LPS+ATP/Nig positive control group received cell culture medium. 1 h later, the culture mediums of the LPS+ATP/Nig positive control group and the example compound experimental group were completely replaced with cell culture medium containing 5 mM ATP or 10 µM Nig. 1 h later, the cell supernatants were collected for IL-1β detection.
Therefore, the relative change in the amount of IL-1β release may directly reflect NLRP3 inhibitory effect.
Background: An ELISA detects its analyte on a solid surface through an enzyme-linked reagent.

The target in data set [2] is T1, NLRP3. Put plainly: Inhibition of APOE peptide-induced NLRP3 activation in J774A.1 cells, IL-1β release. The format is cell-based. Also noted: The mouse macrophage cell line J774A.1 was used, and LPS was used as the first signal; host or cells: J774A.1 mouse monocyte-macrophage cell line. Conditions: J774.A1, 10 µM compound, 30 µg/mL APOE peptide. As for the experimental part:
J774A.1 cells were plated in a 48-well plate at a density of 1.0×10^6 cells/mL, with 300 µL per well. Subsequently, NLRP3 was activated by APOE peptide. The cell culture medium comprises: DMEM (brand: Gibco, Cat. No.: C12430500) + 10% fetal bovine serum (brand: Gibco, Cat. No.: 10099-141) + 1% sodium pyruvate (brand: Gibco, Cat. No.: 11360-070) + 1% penicillin-streptomycin solution (brand: Solarbio, Cat. No.: P1400). The J774A.1 mouse monocyte-macrophage cell line was purchased from the Cell Resource Center of the Institute of Basic Medical Sciences of Chinese Academy of Medical Sciences (Resource No. 1101MOU-PUMC000222). APOE2/3 peptide 1-151 was obtained through recombinant protein expression and purification by Biocells (Beijing) Biotech Co., Ltd. The procedures were as follows: the sequence (SEQ ID NO: 1) shown below was inserted into the pET-28A plasmid and transformed into BL-21(DE3) expression strain; the expression of target protein was induced with IPTG at a low temperature; after collecting the bacteria via centrifugation, ultrasonic disruption was performed; and after centrifugation, the supernatant was purified by nickel ion affinity chromatography (AKTA pure), and then the product was concentrated by ultrafiltration and identified by BCA+protein electrophoresis. Sequence: [formula]
Experimental groups: a negative control group, an APOE treatment control group, and an example compound experimental group.
After the plated J774A.1 cells adhering to the plate, the culture medium was replaced. The culture medium of the APOE treatment control group was replaced with cell culture medium containing 30 µg/mL APOE peptide, the culture medium of the example compound experimental group was replaced with culture medium containing 30 µg/mL APOE peptide combined with the compounds, and the negative control group received cell culture medium. Then, all the groups were incubated overnight. 18 h later, the cell supernatants were collected for IL-1β detection.
Activation of NLRP3 by APOE peptide will result in release of mature IL-1β, and the release can be inhibited by NLRP3 inhibitors. Therefore, the relative change in the amount of IL-1β release may directly reflect NLRP3 inhibitory effect.
In this experimental example, effective inhibition refers to a reduction of 70% or more in the release amount, compared with the release amount of the positive control minus the negative control.

Data set [3] in a line: Mouse pharmacokinetics after intravenous administration (plasma and brain, LC-MS). The settings on record: C57 mice, intravenous 5 mg/kg. The format is in vivo. As for the experimental part:
C57 mice were administered intravenously, at a dosage concentration of 5 mg/kg in each group. Retro-orbital blood collection was performed on the mice at 1 min, 30 min, 1 h, and 2 h post-dosing. The collected blood was centrifuged at 3000 rpm for 10 min at 4 °C to obtain plasma. Acetonitrile was added at a 1:3 volume ratio of plasma: acetonitrile to precipitate proteins. After centrifugation, the supernatant was collected and filtered. The concentration of the compound was detected using LC-MS (Agilent 1260-G6125, SIM mode). In addition, 2 h after drug injection, the mice were subjected to cardiac perfusion and then their brains were harvested. Following tissue homogenization and centrifugation, the supernatant was collected. Acetonitrile was added at a 1:3 volume ratio of supernatant: acetonitrile to precipitate proteins. After centrifugation, the supernatant was collected and filtered. The concentration of the compound was detected using LC-MS (Agilent 1260-G6125, SIM mode).
Experimental groups: a vehicle control group, and a dosing group.

Setting [4] is: J774.A1, 1 µM compound, LPS + 5 mM ATP or 10 µM Nig, compared with the positive control, read-out: inhibition of IL-1β release.

These results are taken from patent EP4796530A1 (Biocells (Beijing) Biotech Co., Ltd., priority 2023, dated 2025).

The structures appear in SMILES notation. Read-outs that look alike come from different tables or passages of the source. A value given as a limit tells only on which side of the number the result lay.

In general, inhibition refers to the change of the read-out against control, counted positive when it falls. Regarding `CN(C)Cc1cc(S(=O)(=O)NC(=O)Nc2c3c(cc4c2CCC4)CCC3)ccc1Cl` [Example 8, 4-chloro-3-((dimethylamino)methyl)-N-((1,2,3,5,6,7-hexahydro-s-indacen-4-yl)carbamoyl)benzenesulfonamide], the inhibition at 1 µM at NLRP3 [1] (setting [4]) was 20 to 80%.
On to `CN(C)Cc1cccc(S(=O)(=O)NC(=O)Nc2c3c(cc4c2CCC4)CCC3)c1F` [Example 24, 3-((dimethylamino)methyl)-2-fluoro-N-((1,2,3,5,6,7-hexahydro-s-indacen-4-yl)carbamoyl)benzenesulfonamide], for which the inhibition at 10 µM against NLRP3 [2] is not below 70%. Also, the inhibition at 1 µM at NLRP3 [1] (setting [4]) was more than 80%.
For `CN(C)Cc1cc(S(=O)(=O)NC(=O)Nc2c3c(cc4c2CCC4)CCC3)ccc1OCc1ccccc1` [Example 4], the inhibition at 1 µM on NLRP3 [1] (J774.A1, read-out: inhibition of IL-1β release, 1 µM compound, LPS + 5 mM ATP or 10 µM Nig, compared with the positive control) was more than 80%.
In the case of `CN(C)Cc1cc(S(=O)(=O)NC(=O)Nc2c3c(cc4c2CCC4)CCC3)ccc1N` [Example 7, 4-amino-3-((dimethylamino)methyl)-N-((1,2,3,5,6,7-hexahydro-s-indacen-4-yl)carbamoyl)benzenesulfonamide], on NLRP3 [1] (setting [4]), the inhibition at 1 µM is more than 80%.
On NLRP3 [2], `CN(C)Cc1c(F)ccc(S(=O)(=O)NC(=O)Nc2c3c(cc4c2CCC4)CCC3)c1F` [Example 23, 3-((dimethylamino)methyl)-2,4-difluoro-N-((1,2,3,5,6,7-hexahydro-s-indacen-4-yl)carbamoyl)benzenesulfonamide] displayed an inhibition at 10 µM not below 70%. In addition, the inhibition at 1 µM at NLRP3 [1] (setting [4]) was more than 80%.
`CN(C)Cc1cc(S(=O)(=O)NC(=O)Nc2c3c(cc4c2CCC4)CCC3)ccc1OC(F)(F)F` [Example 9, 3-((dimethylamino)methyl)-N-((1,2,3,5,6,7-hexahydro-s-indacen-4-yl)carbamoyl)-4-(trifluoromethoxy)benzenesulfonamide]: on NLRP3 [1] (setting [4]), the inhibition at 1 µM lay in the range of 20 to 80%.
For `CN(C)Cc1cc(S(=O)(=O)NC(=O)Nc2c3c(cc4c2CCC4)CCC3)ccc1F` [Example 6, 3-((dimethylamino)methyl)-4-fluoro-N-((1,2,3,5,6,7-hexahydro-s-indacen-4-yl)carbamoyl)benzenesulfonamide], the inhibition at 1 µM on NLRP3 [1] (setting [4]) was more than 80%.
Regarding `CN(C)Cc1ccc(N)c(S(=O)(=O)NC(=O)Nc2c3c(cc4c2CCC4)CCC3)c1` [Example 12, 2-amino-5-((dimethylamino)methyl)-N-((1,2,3,5,6,7-hexahydro-s-indacen-4-yl)carbamoyl)benzenesulfonamide], on NLRP3 [1] (setting [4]), the inhibition at 1 µM fell in the range of 20 to 80%.
On the same count and under the same terms, as for `CC(C)Oc1ccc(S(=O)(=O)NC(=O)Nc2c3c(cc4c2CCC4)CCC3)cc1CN(C)C` [Example 15, 3-((dimethylamino)methyl)-N-((1,2,3,5,6,7-hexahydro-s-indacen-4-yl)carbamoyl)-4-isopropoxybenzenesulfonamide], the figure is more than 80%; as for `CN(C)Cc1ccc(F)c(S(=O)(=O)NC(=O)Nc2c3c(cc4c2CCC4)CCC3)c1` [Example 2, 5-((dimethylamino)methyl)-2-fluoro-N-((1,2,3,5,6,7-hexahydro-s-indacen-4-yl)carbamoyl)benzenesulfonamide], more than 80%.
Take `CN(C)Cc1ccc([N+](=O)[O-])c(S(=O)(=O)NC(=O)Nc2c3c(cc4c2CCC4)CCC3)c1` [Example 11, 5-((dimethylamino)methyl)-N-((1,2,3,5,6,7-hexahydro-s-indacen-4-yl)carbamoyl)-2-nitrobenzenesulfonamide]: the inhibition at 1 µM at NLRP3 [1] (setting [4]) is more than 80%.
On NLRP3 [2], `CN(C)Cc1ccc(F)c(S(=O)(=O)NC(=O)Nc2c3c(cc4c2CCC4)CCC3)c1F` [Example 25, 3-((dimethylamino)methyl)-2,6-difluoro-N-((1,2,3,5,6,7-hexahydro-s-indacen-4-yl)carbamoyl)benzenesulfonamide] registered an inhibition at 10 µM not below 70%. The inhibition at 1 µM at NLRP3 [1] (setting [4]) was more than 80%.
In the case of `COc1cc(F)c(S(=O)(=O)NC(=O)Nc2c3c(cc4c2CCC4)CCC3)cc1CN(C)C` [Example 20, 5-((dimethylamino)methyl)-2-fluoro-N-((1,2,3,5,6,7-hexahydro-s-indacen-4-yl)carbamoyl)-4-methoxybenzenesulfonamide], the inhibition at 10 µM on NLRP3 [2] is not below 70%. In addition, the inhibition at 1 µM at NLRP3 [1] (setting [4]) is more than 80%.
The molecule `CCOc1ccc(S(=O)(=O)NC(=O)Nc2c3c(cc4c2CCC4)CCC3)cc1CN(C)C` [Example 14, 3-((dimethylamino)methyl)-4-ethoxy-N-((1,2,3,5,6,7-hexahydro-s-indacen-4-yl)carbamoyl)benzenesulfonamide] gave an inhibition at 10 µM against NLRP3 [2] not below 70%. Besides, on NLRP3 [1] (setting [4]), the inhibition at 1 µM was more than 80%.
Turning to `CCN(CC)Cc1cc(S(=O)(=O)NC(=O)Nc2c3c(cc4c2CCC4)CCC3)ccc1OC` [Example 13], at NLRP3 [1] (1 µM compound, LPS + 5 mM ATP or 10 µM Nig, compared with the positive control), the “inhibition of IL-1β release” value was “no inhibitory effect”.
The half-life is the time in which the quantity being followed falls by half. A low value points to fast loss. As usually defined, the AUC is the area under the concentration-time curve, a measure of exposure. For `CN1CCc2ccc(S(=O)(=O)NC(=O)Nc3c4c(cc5c3CCC5)CCC4)cc2C1` [Example 29, N-((1,2,3,5,6,7-hexahydro-s-indacen-4-yl)carbamoyl)-2-methyl-1,2,3,4-tetrahydroisoquinoline-7-sulfonamide], the concentration at 120 min in data set [3] (brain after cardiac perfusion, read-out: brain drug concentration at 120 min) turned out to be 197 ng/mL. In data set [3] (plasma), this molecule had a half-life of 1.65 h. The AUC in data set [3] (plasma, read-out: area under the curve (AUC) from 1 to 120 min) worked out at 14900 ng·h/mL.
Regarding `COc1ccc(S(=O)(=O)NC(=O)Nc2c3c(cc4c2CCC4)CCC3)c(Cl)c1CN(C)C` [Example 28, 2-chloro-3-((dimethylamino)methyl)-N-((1,2,3,5,6,7-hexahydro-s-indacen-4-yl)carbamoyl)-4-methoxybenzenesulfonamide], the inhibition at 1 µM at NLRP3 [1] (setting [4]) is more than 80%.
On to `CN(C)Cc1ccc(Cl)c(S(=O)(=O)NC(=O)Nc2c3c(cc4c2CCC4)CCC3)c1` [Example 10, 2-chloro-5-((dimethylamino)methyl)-N-((1,2,3,5,6,7-hexahydro-s-indacen-4-yl)carbamoyl)benzenesulfonamide], for which the inhibition at 1 µM on NLRP3 [1] (setting [4]) was more than 80%.
Turning to `COc1c(F)cc(S(=O)(=O)NC(=O)Nc2c3c(cc4c2CCC4)CCC3)cc1CN(C)C` [Example 16, 3-((dimethylamino)methyl)-5-fluoro-N-((1,2,3,5,6,7-hexahydro-s-indacen-4-yl)carbamoyl)-4-methoxybenzenesulfonamide], the inhibition at 1 µM at NLRP3 [1] (setting [4]) was 20 to 80%.
